Laboratory results: PubChem BioAssay AID1949 (Southern Research Institute, 2009)
≈ marks a conversion by molar mass, not a printed value. Records with an inconclusive call do not appear. Calls of active or inactive are those of the source. How the calls were made is not given here.

Tested on: M. tuberculosis H37Rv growth inhibition
Experiment: Mycobacterium tuberculosis H37Rv growth inhibition, cell based, confirmatory dose response (AID 1949);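 further: bacteria grown 7 days with compound before Alamar blue readout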

Question: How did the IC50 turn out when O=C(Nc1ccc([N+](=O)[O-])cc1)c1cc(Br)ccc1O was run?
Answer: The IC50 was 17.9 µg/mL (≈ 53.2 µM).

Question: With CCc1nc2ccccc2n1CC(O)COc1ccc(Br)cc1 (centres undefined) as the molecule, how does the IC50 read?
Answer: Its IC50 is 4.11 µg/mL (≈ 11 µM).

Question: For O=c1c2cc(I)ccc2nc(/C=C/c2cccnc2)n1CCc1ccccc1, which IC50 is on record?
Answer: The IC50 was 31.4 µg/mL (≈ 65.4 µM).

Question: Which IC50 does the source give for COC(=O)COc1cc2oc(=O)cc(-c3ccccc3)c2cc1Cl here?
Answer: The IC50 was 29 µg/mL (≈ 84.1 µM).

Question: Which IC50 does the source give for Cc1cc(C)c2[nH]c3ccccc3c2n1 here?
Answer: The IC50 was 1.3 µg/mL (≈ 6.62 µM).

Question: COc1ccc(/C=C/c2nc3ccccc3c(=O)o2)cc1 was tested. Which IC50 did it give?
Answer: The IC50 was 27.6 µg/mL (≈ 99 µM).

Question: For O=C(Nc1ccc(Cl)c(C(F)(F)F)c1)c1csc2c1CCCC2, which IC50 is on record?
Answer: Its IC50 is 2.66 µg/mL (≈ 7.39 µM).

Question: CCOC(=O)C1=CN(C(C)C)C=C(C(=O)OCC)C1c1cc(OC)ccc1OC was tested. Which IC50 did it give?
Answer: Its IC50 is > 50 µg/mL (inactive).

Question: How did the IC50 turn out when CC(C)(C)c1ccc(C(=O)NC(=S)Nc2ccc(F)cc2)cc1Br was run?
Answer: Its IC50 is 2.51 µg/mL (≈ 6.13 µM).

Question: CCOc1ccc(N2C(=O)CC(Nc3ccccc3O)C2=O)cc1 (centres undefined) was tested. Which IC50 did it give?
Answer: Its IC50 is 4.58 µg/mL (≈ 14 µM).

Question: How did the IC50 turn out when Cc1ccc(SCC(=O)Nc2ccc(C)c([N+](=O)[O-])c2)cc1 was run?
Answer: The IC50 was 2.18 µg/mL (≈ 6.89 µM).

Question: For COc1cc([N+](=O)[O-])ccc1NC(=O)c1cc(Cl)ccc1O, which IC50 is on record?
Answer: The IC50 was 0.12 µg/mL (≈ 0.372 µM).

Question: How did the IC50 turn out when CCOC(=O)c1c(-c2ccccc2)oc2ccc(OC(=O)c3cccs3)cc12 was run?
Answer: Its IC50 is > 50 µg/mL (inactive).

Question: For CC1CCN(c2ccc(N)cc2)CC1, which IC50 is on record?
Answer: The IC50 was 5.71 µg/mL (≈ 30 µM).

Question: How did the IC50 turn out when Cc1ccc(NC(=O)C(=O)NNC(=O)c2ccco2)cc1Cl was run?
Answer: Its IC50 is 1.41 µg/mL (≈ 4.38 µM).

Question: For CCC(C)NCCOc1ccc(C(C)(C)c2ccccc2)cc1 (centres undefined), which IC50 is on record?
Answer: The IC50 was 0.91 µg/mL (≈ 2.92 µM).

Question: Which IC50 does the source give for COc1cc([N+](=O)[O-])ccc1NC(=S)Nc1ccc(F)c(Cl)c1 here?
Answer: The IC50 was 2.76 µg/mL (≈ 7.76 µM).

Question: How did the IC50 turn out when CC1=NN(c2nc(-c3ccc(Cl)cc3)cs2)C(=O)C1C (centres undefined) was run?
Answer: Its IC50 is 2.07 µg/mL (≈ 6.77 µM).

Question: How did the IC50 turn out when Cc1cc(C)c(N2CCN(S(=O)(=O)c3ccc(Cl)cc3)CC2)c(C)c1 was run?
Answer: Its IC50 is > 50 µg/mL (inactive).

Question: How did the IC50 turn out when Cc1cc(C)nc(Nc2ccc(N3CCCC3)cc2)n1 was run?
Answer: The IC50 was 9.69 µg/mL (≈ 36.1 µM).

Question: With CCOc1ccc(NC(=O)C(C)Oc2ccc(C)c(C)c2)cc1 (centres undefined) as the molecule, how does the IC50 read?
Answer: Its IC50 is 4.04 µg/mL (≈ 12.9 µM).

Question: Cc1cccc2c1N(CCOc1ccc(C(C)(C)C)cc1)C(=O)C2=O was tested. Which IC50 did it give?
Answer: The IC50 was > 50 µg/mL (inactive).

Question: How did the IC50 turn out when Cc1cccc(OCCCn2cnc3cc(C)c(C)cc32)c1 was run?
Answer: Its IC50 is 1.84 µg/mL (≈ 6.25 µM).

Question: Which IC50 does the source give for CC1CCN(C(=S)NC(=O)c2ccc(Cl)cc2)CC1 here?
Answer: The IC50 was 0.35 µg/mL (≈ 1.18 µM).

Question: With CCC(C)NC(=O)c1ccc(NC(=O)C2(c3ccccc3)CCCC2)cc1 (centres undefined) as the molecule, how does the IC50 read?
Answer: Its IC50 is 1.08 µg/mL (≈ 2.96 µM).

Question: With Cc1c(Cl)ccc2c(=O)c(C(=O)O)c[nH]c12 as the molecule, how does the IC50 read?
Answer: Its IC50 is 29.6 µg/mL (≈ 125 µM).

Question: Which IC50 does the source give for COC(=O)CSc1nc(-c2ccccc2)c(-c2ccccc2)o1 here?
Answer: The IC50 was 5.58 µg/mL (≈ 17.1 µM).

Question: Which IC50 does the source give for O=C(CCN1C(=O)C2C3C=CC(C4CC34)C2C1=O)Oc1cccc2cccnc12 (centres undefined) here?
Answer: The IC50 was 1.46 µg/mL (≈ 3.76 µM).

Question: With O=C(NCCC12CC3CC(CC(C3)C1)C2)c1ccc(Br)cc1 as the molecule, how does the IC50 read?
Answer: The IC50 was 0.28 µg/mL (≈ 0.773 µM).

Question: CC(C)(C)c1ccc(OCCNC(=O)c2cccc(Br)c2)cc1 was tested. Which IC50 did it give?
Answer: Its IC50 is 5.19 µg/mL (≈ 13.8 µM).

Question: For O=C(Cc1ccc(Cl)cc1)Nc1nc2ccc(Cl)cc2s1, which IC50 is on record?
Answer: The IC50 was 3.22 µg/mL (≈ 9.55 µM).

Question: For CCC(C)Oc1c(Cl)cc(/C=C\[N+](=O)[O-])cc1OC (centres undefined), which IC50 is on record?
Answer: The IC50 was > 50 µg/mL (inactive).

Question: CCN1CCN(c2ccc(NC(=O)CC34CC5CC(CC(C5)C3)C4)cc2Cl)CC1 was tested. Which IC50 did it give?
Answer: The IC50 was 49.4 µg/mL (≈ 119 µM).

Question: CSc1ccc(C(CC(=O)c2ccccc2)Nc2ccc(F)cc2)cc1 (centres undefined) was tested. Which IC50 did it give?
Answer: The IC50 was 1.47 µg/mL (≈ 4.02 µM).

Question: For Cc1c(OC(=O)c2cccc([N+](=O)[O-])c2)ccc2c1CCCC2, which IC50 is on record?
Answer: The IC50 was 2.64 µg/mL (≈ 8.48 µM).

Question: With CCn1c2ccccc2c2cc(NC(=O)C34CCC(C)(C(=O)C3)C4(C)C)ccc21 (centres undefined) as the molecule, how does the IC50 read?
Answer: The IC50 was 11.5 µg/mL (≈ 29.7 µM).

Question: How did the IC50 turn out when O=C(Nc1ccc(Cl)cc1)Nc1ccc(F)c(F)c1 was run?
Answer: Its IC50 is 0.94 µg/mL (≈ 3.33 µM).

Question: How did the IC50 turn out when Cn1c2c(c(=O)n(C)c1=O)C(C(F)(F)F)(C(F)(F)F)N=C(c1ccc(Cl)cc1)N2 was run?
Answer: Its IC50 is 46.1 µg/mL (≈ 105 µM).

Question: For N#Cc1ccccc1-c1ccc(/C=C/[N+](=O)[O-])o1, which IC50 is on record?
Answer: The IC50 was > 50 µg/mL (inactive).

Question: With Clc1cc(Br)ccc1OCCCn1ccnc1 as the molecule, how does the IC50 read?
Answer: Its IC50 is 15 µg/mL (≈ 47.4 µM).

Question: With C1=CC2CC1CC2CN1CCC(N(CCc2ccccc2)Cc2ccccc2)CC1 (centres undefined) as the molecule, how does the IC50 read?
Answer: Its IC50 is 1.4 µg/mL (≈ 3.49 µM).

Question: For O=C(O)c1ccc(NC(=S)NC(=O)c2ccc(-c3ccccc3)cc2)cc1, which IC50 is on record?
Answer: The IC50 was 1.58 µg/mL (≈ 4.2 µM).

Question: Which IC50 does the source give for Oc1ccccc1-c1n[nH]c(/C=C/c2ccc(Br)cc2)n1 here?
Answer: Its IC50 is 3.27 µg/mL (≈ 9.56 µM).

Question: Which IC50 does the source give for COc1ccc2cc(-c3nn(-c4ccccc4)cc3CO)ccc2c1 here?
Answer: The IC50 was > 50 µg/mL (inactive).

Question: For Cc1ccc(Sc2ccc(C=O)o2)cc1, which IC50 is on record?
Answer: Its IC50 is 2.15 µg/mL (≈ 9.85 µM).

Question: For CC(=O)NC(=S)NNC(=O)c1ccc(C)c(Br)c1, which IC50 is on record?
Answer: The IC50 was 1.77 µg/mL (≈ 5.36 µM).

Question: For COC(=O)CSc1[nH]c2ccc(Br)cc2c1[N+](=O)[O-], which IC50 is on record?
Answer: Its IC50 is > 50 µg/mL (inactive).

Question: For O=C(NCc1ccc2c(c1)OCO2)c1cnn2c1NC(c1cccs1)CC2C(F)(F)F (centres undefined), which IC50 is on record?
Answer: The IC50 was 0.13 µg/mL (≈ 0.289 µM).

Question: For O=C(CNS(=O)(=O)c1cccc(C(F)(F)F)c1)N1CCN(c2ccc(Cl)c(Cl)c2)CC1, which IC50 is on record?
Answer: Its IC50 is 4.79 µg/mL (≈ 9.65 µM).

Question: Cc1ccc(NC(=O)c2cc3cc(Cl)cc(Cl)c3oc2=O)c(C)c1 was tested. Which IC50 did it give?
Answer: The IC50 was 1.1 µg/mL (≈ 3.04 µM).

Question: Which IC50 does the source give for COc1ccccc1-c1coc2cc(OCC(=O)OCc3ccccc3)ccc2c1=O here?
Answer: The IC50 was 0.35 µg/mL (≈ 0.84 µM).

Question: With O=C(Nc1ccc(F)cc1)c1ccc(C#CC2(O)CCCCC2)cc1 as the molecule, how does the IC50 read?
Answer: Its IC50 is 10.6 µg/mL (≈ 31.4 µM).

Question: How did the IC50 turn out when COC(=O)COc1ccc2c(=O)c(Oc3ccccc3F)c(C)oc2c1C was run?
Answer: The IC50 was 6.55 µg/mL (≈ 17.6 µM).

Question: COc1ccc(CCNC(=O)c2ccc(C#CC(C)(C)O)s2)cc1 was tested. Which IC50 did it give?
Answer: Its IC50 is under 0.1 µg/mL.

Question: How did the IC50 turn out when Cc1cccc(NC(=O)Nc2ccc(C(F)(F)F)cc2)c1 was run?
Answer: The IC50 was 8.07 µg/mL (≈ 27.4 µM).

Question: With CC(C)(C)c1cc(Cl)c(O)c(NC(=S)NC(=O)c2cccnc2)c1 as the molecule, how does the IC50 read?
Answer: Its IC50 is under 0.1 µg/mL.

Question: COC(=O)C1=C(C)N(c2cc(Cl)cc(Cl)c2)C(=O)C1 was tested. Which IC50 did it give?
Answer: The IC50 was 6.04 µg/mL (≈ 20.1 µM).

Question: O=C(NC12CC3CC(CC(C3)C1)C2)N1CCN(c2cccc(C(F)(F)F)c2)CC1 was tested. Which IC50 did it give?
Answer: Its IC50 is 0.96 µg/mL (≈ 2.36 µM).

Question: How did the IC50 turn out when COC(=O)c1ccc(OCC(=O)c2ccc(F)cc2)cc1 was run?
Answer: Its IC50 is > 50 µg/mL (inactive).
